Results published in PMC9490236, “Accurate de novo design of membrane-traversing macrocycles” (Cell, 2022).
Where a SMILES comes first, the peptide text is derived from it. [ ]: non-standard residue; d: D form. NMeF = CN[C@@H](Cc1ccccc1)C(=O)O; dNMeF = CN[C@H](Cc1ccccc1)C(=O)O; NMeL = CN[C@@H](CC(C)C)C(=O)O; dNMeL = CN[C@H](CC(C)C)C(=O)O; dNMeV = CN[C@@H](C(=O)O)C(C)C; NMeM = CN[C@@H](CCSC)C(=O)O; NMeA = CN[C@@H](C)C(=O)O; Nle = CCCC[C@H](N)C(=O)O; dNMeA = CN[C@H](C)C(=O)O; Sar = CNCC(=O)O

Conditions: Caco-2

Row | SMILES | permeability in transwell assays
1 | CC(C)C[C@@H]1NC(=O)[C@@H](CC(C)C)N(C)C(=O)[C@@H]2CCCN2C(=O)[C@H](CC(C)C)N(C)C(=O)[C@@H](C)NC(=O)[C@@H](CC(C)C)N(C)C(=O)[C@@H]2CCCN2C(=O)[C@@H](CC(C)C)N(C)C(=O)[C@H](CC(C)C)N(C)C(=O)[C@H](Cc2ccccc2)NC1=O [Design D10.21, *LEU *DLEU PRO *DLEU DALA *LEU PRO *DLEU LEU PHE] (cyclo(F[NMeL][dNMeL]P[dNMeL][dA][NMeL]P[dNMeL]L)) | not permeable
2 | CC(C)C[C@@H]1NC(=O)[C@@H]2CCCN2C(=O)[C@H]2CCCN2C(=O)CN(C)C(=O)[C@@H](Cc2ccccc2)N(C)C(=O)[C@@H](CC(C)C)NC(=O)[C@@H](CC(C)C)N(C)C(=O)[C@@H]2CCCN2C(=O)[C@H](CC(C)C)N(C)C(=O)[C@H](CC(C)C)N(C)C1=O [Design D10.22, PRO LEU *LEU *LEU PRO *DLEU DLEU *DPHE *GLY DPRO] (cyclo(L[NMeL][NMeL]P[dNMeL][dL][dNMeF][Sar][dP]P)) | not permeable
3 | CC(C)C[C@@H]1NC(=O)[C@@H]2CCCN2C(=O)[C@H]2CCCN2C(=O)[C@@H](CC(C)C)N(C)C(=O)[C@@H](Cc2ccccc2)N(C)C(=O)[C@@H](CC(C)C)NC(=O)[C@@H](CC(C)C)N(C)C(=O)[C@@H]2CCCN2C(=O)[C@H](CC(C)C)N(C)C(=O)[C@H](CC(C)C)N(C)C1=O [Design D10.23, PRO LEU *LEU *LEU PRO *DLEU DLEU *DPHE *DLEU DPRO] (cyclo(L[NMeL][NMeL]P[dNMeL][dL][dNMeF][dNMeL][dP]P)) | not permeable

Same assay, conditions: PAMPA

Row | SMILES | PAMPA_Papp_Avg | PAMPA_R1 | PAMPA_R3
4 | CCCC[C@@H]1NC(=O)[C@@H](C)N(C)C(=O)[C@@H]2CCCN2C(=O)[C@@H](CC(C)C)NC(=O)[C@H](CC(C)C)N(C)C(=O)[C@H]2CCCN2C(=O)[C@H](CC(C)C)NC(=O)[C@@H](CC(C)C)NC(=O)[C@@H](C)NC1=O [Design D9.28, DLEU LEU DPRO *LEU DLEU PRO *DALA MET DALA] (cyclo(L[dP][NMeL][dL]P[dNMeA][Nle][dA][dL])) | 1.60E-06 | 1.84E-06 | 1.41E-06
5 | CCCC[C@@H]1NC(=O)[C@H]2CCCN2C(=O)[C@@H]2CCCN2C(=O)[C@@H](C)NC(=O)[C@H]2CCCN2C(=O)[C@@H](C(C)C)NC(=O)[C@H](C(C)C)NC(=O)[C@@H](Cc2ccccc2)N(C)C(=O)[C@H](C)N(C)C1=O [Design D9.31, PRO DPRO MET *ALA *DPHE VAL DVAL DPRO DALA] (cyclo([NMeA][dNMeF]V[dV][dP][dA]P[dP][Nle])) | 6.86E-08 | 6.96E-08 | 5.29E-08
6 | CC(C)C[C@@H]1NC(=O)[C@H](C(C)C)NC(=O)[C@@H](C)NC(=O)[C@H](C)NC(=O)[C@@H]2CCCN2C(=O)[C@H]2CCCN2C(=O)[C@@H](C)NC(=O)[C@H]2CCCN2C(=O)[C@@H]2CCCN2C1=O [Design D9.34, PRO ALA DALA VAL LEU PRO DPRO DALA DPRO] (cyclo(A[dA]VLP[dP][dA][dP]P)) | BQL | BQL | BQL
7 | CC(C)[C@H]1NC(=O)[C@H](C)NC(=O)[C@@H]2CCCN2C(=O)[C@H]2CCCN2C(=O)[C@@H](C(C)C)NC(=O)[C@H]2CCCN2C(=O)[C@@H](C)NC(=O)[C@@H](Cc2ccccc2)N(C)C(=O)[C@H](Cc2ccccc2)NC1=O [Design D9.35, DPRO DVAL DPRO PRO ALA DVAL PHE *DPHE DALA] (cyclo(A[dV]F[dNMeF][dA][dP][dV][dP]P)) | BQL | BQL | BQL
8 | CC(C)[C@@H]1NC(=O)[C@H](C)NC(=O)[C@H]2CCCN2C(=O)[C@@H](Cc2ccccc2)NC(=O)[C@H]2CCCN2C(=O)[C@@H]2CCCN2C(=O)[C@H](Cc2ccccc2)NC(=O)[C@H](C)NC(=O)[C@H]2CCCN2C1=O [Design D9.36, VAL DPRO ALA PHE PRO DPRO DPHE DPRO ALA] (cyclo(AFP[dP][dF][dP]AV[dP])) | BQL | BQL | BQL
9 | CC[C@H](C)[C@@H]1NC(=O)[C@@H](CC(C)C)NC(=O)[C@H]2CCCN2C(=O)[C@@H]2CCCN2C(=O)[C@H](C)NC(=O)[C@H]2CCCN2C(=O)[C@@H]2CCCN2C(=O)[C@H](C)NC(=O)[C@@H](C(C)C)N(C)C1=O [Design D9.37, DPRO DLEU ILE *DVAL ALA PRO DPRO ALA PRO] (cyclo(AP[dP]AP[dP][dL]I[dNMeV])) | BQL | BQL | BQL
10 | CC[C@@H](C)[C@H]1NC(=O)[C@H](CC(C)C)NC(=O)[C@@H](CC(C)C)NC(=O)[C@H](C(C)C)NC(=O)[C@@H]2CCCN2C(=O)[C@H](CC(C)C)N(C)C(=O)[C@@H](CC(C)C)NC(=O)[C@H](Cc2ccccc2)N(C)C(=O)[C@H]2CCCN2C1=O [Design D9.38, DPRO *PHE DLEU *LEU PRO VAL DLEU LEU DILE] (cyclo(L[dI][dP][NMeF][dL][NMeL]PV[dL])) | BQL | BQL | BQL
11 | CCCC[C@@H]1NC(=O)[C@H]2CCCN2C(=O)[C@H](C(C)C)NC(=O)[C@@H](CC(C)C)N(C)C(=O)[C@H](Cc2ccccc2)NC(=O)[C@H](CC(C)C)NC(=O)[C@@H](CC(C)C)N(C)C(=O)[C@@H]2CCCN2C(=O)[C@@H](CC(C)C)NC1=O [Design D9.40, DPRO MET DLEU PRO *DLEU LEU PHE *DLEU VAL] (cyclo(F[dNMeL]V[dP][Nle][dL]P[dNMeL]L)) | 2.38E-07 | 4.18E-07 | 1.63E-07
12 | CC(C)C[C@@H]1NC(=O)[C@H](C)NC(=O)[C@H](C)NC(=O)[C@H]2CCCN2C(=O)[C@H](Cc2ccccc2)N(C)C(=O)[C@H]2CCCN2C(=O)[C@H](CC(C)C)N(C)C(=O)[C@@H](CC(C)C)N(C)C(=O)[C@H](Cc2ccccc2)NC(=O)[C@@H](CC(C)C)NC1=O [Design D10.8, PHE *DLEU *LEU DPRO *PHE DPRO ALA ALA LEU DLEU] (cyclo(AAL[dL]F[dNMeL][NMeL][dP][NMeF][dP])) | BQL | BQL | BQL
13 | CC[C@H](C)[C@@H]1NC(=O)[C@H](C(C)C)NC(=O)[C@@H](CC(C)C)N(C)C(=O)[C@H](Cc2ccccc2)N(C)C(=O)[C@H]2CCCN2C(=O)[C@H](C(C)C)NC(=O)[C@@H](C)NC(=O)[C@H](CC(C)C)N(C)C(=O)[C@H]2CCCN2C(=O)[C@@H](Cc2ccccc2)NC1=O [Design D10.9, DPRO *LEU DALA VAL DPRO *PHE *DLEU VAL ILE DPHE] (cyclo(I[dF][dP][NMeL][dA]V[dP][NMeF][dNMeL]V)) | BQL | BQL | BQL
14 | CC[C@@H](C)[C@H]1NC(=O)[C@H](CC(C)C)NC(=O)[C@H](CC(C)C)N(C)C(=O)[C@H]2CCCN2C(=O)[C@@H](CC(C)C)NC(=O)[C@@H]2CCCN2C(=O)[C@H](CC(C)C)N(C)C(=O)[C@@H](Cc2ccccc2)N(C)C(=O)[C@H](CC(C)C)N(C)C(=O)[C@H](CC(C)C)N(C)C1=O [Design D10.12, *LEU LEU DILE *LEU *LEU *DPHE *LEU PRO DLEU DPRO] (cyclo(L[dI][NMeL][NMeL][dNMeF][NMeL]P[dL][dP][NMeL])) | BQL | BQL | BQL
15 | CC(C)C[C@@H]1NC(=O)[C@H](CC(C)C)N(C)C(=O)[C@@H](Cc2ccccc2)N(C)C(=O)[C@H](Cc2ccccc2)NC(=O)[C@@H]2CCCN2C(=O)[C@@H](C)NC(=O)[C@@H]2CCCN2C(=O)[C@H](CC(C)C)N(C)C(=O)[C@H](CC(C)C)N(C)C(=O)[C@@H](C(C)C)NC1=O [Design D10.13, *LEU LEU DVAL *LEU *LEU PRO DALA PRO PHE *DPHE] (cyclo(F[dNMeF][NMeL]L[dV][NMeL][NMeL]P[dA]P)) | BQL | BQL | BQL
16 | CC(C)C[C@@H]1C(=O)N[C@H](CC(C)C)C(=O)N(C)[C@H](Cc2ccccc2)C(=O)N(C)[C@@H](CC(C)C)C(=O)N(C)[C@H](C)C(=O)N2CCC[C@H]2C(=O)N(C)[C@H](Cc2ccccc2)C(=O)N[C@@H](C(C)C)C(=O)N[C@H](CC(C)C)C(=O)N2CCC[C@H]2C(=O)N1C [Design D10.14, *DPHE VAL DLEU PRO *DLEU DLEU *DPHE *LEU *DALA PRO] (cyclo([NMeL][dNMeA]P[dNMeF]V[dL]P[dNMeL][dL][dNMeF])) | BQL | BQL | BQL
17 | CC(C)C[C@@H]1NC(=O)[C@@H](CC(C)C)N(C)C(=O)[C@@H]2CCCN2C(=O)[C@H](CC(C)C)N(C)C(=O)[C@@H](C)NC(=O)[C@@H](CC(C)C)N(C)C(=O)[C@@H]2CCCN2C(=O)[C@@H](CC(C)C)N(C)C(=O)[C@H](CC(C)C)N(C)C(=O)[C@H](Cc2ccccc2)NC1=O [Design D10.21, *LEU *DLEU PRO *DLEU DALA *LEU PRO *DLEU LEU PHE] (cyclo(F[NMeL][dNMeL]P[dNMeL][dA][NMeL]P[dNMeL]L)) | BQL | BQL | BQL
18 | CC(C)C[C@@H]1NC(=O)[C@@H]2CCCN2C(=O)[C@H]2CCCN2C(=O)CN(C)C(=O)[C@@H](Cc2ccccc2)N(C)C(=O)[C@@H](CC(C)C)NC(=O)[C@@H](CC(C)C)N(C)C(=O)[C@@H]2CCCN2C(=O)[C@H](CC(C)C)N(C)C(=O)[C@H](CC(C)C)N(C)C1=O [Design D10.22, PRO LEU *LEU *LEU PRO *DLEU DLEU *DPHE *GLY DPRO] (cyclo(L[NMeL][NMeL]P[dNMeL][dL][dNMeF][Sar][dP]P)) | BQL | BQL | BQL
19 | CC(C)C[C@@H]1NC(=O)[C@@H]2CCCN2C(=O)[C@H]2CCCN2C(=O)[C@@H](CC(C)C)N(C)C(=O)[C@@H](Cc2ccccc2)N(C)C(=O)[C@@H](CC(C)C)NC(=O)[C@@H](CC(C)C)N(C)C(=O)[C@@H]2CCCN2C(=O)[C@H](CC(C)C)N(C)C(=O)[C@H](CC(C)C)N(C)C1=O [Design D10.23, PRO LEU *LEU *LEU PRO *DLEU DLEU *DPHE *DLEU DPRO] (cyclo(L[NMeL][NMeL]P[dNMeL][dL][dNMeF][dNMeL][dP]P)) | BQL | BQL | BQL
20 | CC(C)C[C@@H]1NC(=O)[C@@H]2CCCN2C(=O)[C@@H](Cc2ccccc2)N(C)C(=O)[C@H](CC(C)C)N(C)C(=O)[C@H](CC(C)C)N(C)C(=O)[C@@H](CC(C)C)N(C)C(=O)[C@H](C)NC(=O)[C@H](C(C)C)NC(=O)CNC(=O)[C@H](Cc2ccccc2)NC1=O [Design D10.24, PHE GLY VAL ALA *DLEU *LEU *LEU *DPHE PRO LEU] (cyclo(A[dNMeL][NMeL][NMeL][dNMeF]PLFGV)) | BQL | BQL | BQL
21 | CC[C@H](C)[C@@H]1NC(=O)[C@H](CCSC)N(C)C(=O)[C@H]2CCCN2C(=O)[C@H](CC(C)C)NC(=O)[C@@H](Cc2ccccc2)NC(=O)[C@@H]2CCCN2C(=O)[C@H]2CCCN2C(=O)[C@H]([C@@H](C)CC)NC(=O)[C@@H](CC(C)C)N(C)C(=O)[C@H](CC(C)C)N(C)C1=O [Design D10.36, ILE *LEU *DLEU ILE DPRO PRO DPHE LEU DPRO *MET] (cyclo([dF]L[dP][NMeM]I[NMeL][dNMeL]I[dP]P)) | BQL | BQL | BQL
22 | CC[C@@H](C)[C@H]1NC(=O)[C@H](C(C)C)NC(=O)[C@H](Cc2ccccc2)NC(=O)[C@H](C)NC(=O)[C@@H]2CCCN2C(=O)[C@H]2CCCN2C(=O)[C@H]2CCCN2C(=O)[C@H](CC(C)C)N(C)C(=O)[C@@H](C)N(C)C(=O)[C@H](C(C)C)NC1=O [Design D10.38, VAL *DALA *LEU DPRO DPRO PRO ALA PHE VAL DILE] (cyclo(AFV[dI]V[dNMeA][NMeL][dP][dP]P)) | BQL | BQL | BQL
